From patent US8829035B2, “Agent for treatment or prevention of diseases associated with activity of neurotrophic factors” (Sumitomo Chemical Company, Limited, priority 2009, dated 2014) come the findings set out here.

The assay deals with activity of 200 ng/mL of NGF (NXF promoter-driven luciferase in PC12 cells). Nature of the assay: Luciferase reporter assay (NXF promoter) in PC12 cells: potentiation of NGF activity. Also noted: key: +: Showed relatively weak potentiation (potentiation only exhibited at 10 μM); ++: Showed potentiation; +++: Showed particularly strong potentiation (2-fold or greater potentiation of the activity of 200 ng/mL of NGF at 1 μM). As to conditions: Test Example 4, same manner as Test Example 1, relative luciferase activity vs 200 ng/mL NGF alone. Type of assay: cell-based, rat. On the procedure:
The forward primer 5′-[…]-3′ and the reverse primer 5′-[…]-3′ were prepared as the PCR primers according to the sequence information for the NXF gene genome sequence (Accession Nos. AB054577 and NC—000085), and the PCR method was used to isolate from approximately 5 kbp upstream from the translated region of the NXF gene promoter portion to the vicinity of the transcription start site. For this, 1 μg of mouse genomic DNA (Takara) was used as the template, and the 2-step PCR reaction was carried out for 35 cycles, the conditions for which were 95° C./1 m in the denaturing step, and 68° C./8 m in the annealing and extension steps, to obtain the PCR product. The NXF promoter fragment was inserted into the SmaI site of the pGL3 Basic vector (Promega) in the upstream of luciferase gene to prepare a reporter plasmid that would express the luciferase enzyme driven by the NXF promoter.
PC12 cells (available from the ATCC) were cultured using RPMI medium (GIBCO-BRL) with 5% FCS (GIBCO-BR) and 15% horse serum (GIBCO-BRL) added, and 1 mM in sodium pyruvate (GIBCO-BRL), at 37° C. in the presence of 5% CO2. After transfection in 10^6 of these PC12 cells for 2 days with 12 μg of the above-described reporter plasmid and 1 μg of pRC/RSV vector (Invitrogen) using the Lipofectamine 2000 reagent (Invitrogen), the medium was exchanged for fresh medium containing 40 mg/L of geneticin sulfate (GIBCO), and this was cultured continuously. Culturing was continued for approximately 1 month with medium exchange of the cultured medium containing 40 mg/L of geneticin sulfate (GIBCO) every several days, with the result that multiple colonies of the obtained cells were picked up. Among these, one of the colonies that induced luciferase activity in the presence of 40 ng/mL of NGF (Wako Pure Chemicals) was selected and used for the cells to evaluate the activity of the compounds below.
These cells were set up in 96-well plates with 80% confluence, and the luciferase reporter assay was conducted using the Promega Steady Glo luciferase assay kit. The procedure was carried out overnight (approx. 16 hours) using culture medium containing the compound, and the Steady Glo substrate solution was added to the cells in half-diluted in PBS after removal of all remaining medium containing the compound. After this was allowed to stand for 30 minutes, the respective quantity of light produced was measured with a luminometer (Envision Perkin Elmer).
The activity of the compounds for evaluation was measured as the potentiation of the activity of 200 ng/mL of NGF. For the experiment control wells, the negative control well had medium containing only a final concentration of 0.1% DMSO, the positive control well had medium containing a saturation concentration of NGF. In addition, a test well was set up containing 0.1% DMSO with 200 ng/mL of NGF added corresponding to a 0 compound concentration. When its luciferase activity was taken as a standard, the relative luciferase activity could be calculated for the test wells to which the compound solution (dissolved in DMSO and prepared to have a final DMSO concentration of 0.1%) had been added in addition to the 200 ng/mL of NGF, to find the potentiation of the activity of 200 ng/mL of NGF due to that compound.
For orientation: Reporter assays use an easily measured gene product as a stand-in for the process of interest.

Each structure is given as a SMILES string. Where a name gives a salt, the structure may show the parent alone.

For `c1ccc2oc(-c3ccc4c(c3)nc(-c3ccoc3)n4C3CCOCC3)nc2c1` [Ex. 64, 5-(benzoxazol-2-yl)-2-(furan-3-yl)-1-(tetrahydropyran-4-yl)benzimidazole], the “Activity (potentiation of NGF activity)” value is on record as “++”.

In the case of `COc1ccc2oc(-c3ccc4c(c3)nc(C)n4C3CCOCC3)nc2c1` [Ex. 66, 5-(5-methoxybenzoxazol-2-yl)-2-methyl-1-(tetrahydropyran-4-yl)benzimidazole], the “Activity (potentiation of NGF activity)” value is “++”.

Turning to `NCc1nc2cc(-c3nc4ccccc4o3)ccc2n1C1CCOCC1` [Ex. 67, 2-aminomethyl-5-(benzoxazol-2-yl)-1-(tetrahydropyran-4-yl)benzimidazole hydrochloride], the “Activity (potentiation of NGF activity)” value is on record as “+”.

In the case of `c1ccc(CCc2nc3cc(-c4nc5ccccc5o4)ccc3n2C2CCOCC2)cc1` [Ex. 68, 5-(benzoxazol-2-yl)-2-(2-phenylethyl)-1-(tetrahydropyran-4-yl)benzimidazole], the “Activity (potentiation of NGF activity)” value is given as “++”.

In the case of `C(#Cc1nc2cc(-c3nc4ccccc4o3)ccc2n1C1CCOCC1)c1ccccc1` [Ex. 69, 5-(benzoxazol-2-yl)-2-(2-phenylethynyl)-1-(tetrahydropyran-4-yl)benzimidazole], the “Activity (potentiation of NGF activity)” value is recorded as “++”.

On to `Cc1nc2cc(-c3nc4cc(C5CCCCC5)ccc4o3)ccc2n1C1CCOCC1` [Ex. 72, 5-(5-cyclohexylbenzoxazol-2-yl)-2-methyl-1-(tetrahydropyran-4-yl)benzimidazole], for which the “Activity (potentiation of NGF activity)” value is listed as “++”.

For `Cc1nc2cc(-c3nc4cc(C#N)ccc4o3)ccc2n1C1CCOCC1` [Ex. 75, 5-(5-cyanobenzoxazol-2-yl)-2-methyl-1-(tetrahydropyran-4-yl)benzimidazole], the “Activity (potentiation of NGF activity)” value is on record as “++”.

As to `Cc1nc2cc(-c3nc4cc(OC(F)(F)F)ccc4o3)ccc2n1C1CCOCC1` [Ex. 76, 5-(5-trifluoromethoxybenzoxazol-2-yl)-2-methyl-1-(tetrahydropyran-4-yl)benzimidazole], the “Activity (potentiation of NGF activity)” value is “++”.

On to `ClC(Cl)(Cl)c1nc2cc(-c3nc4ccccc4o3)ccc2n1C1CCOCC1` [Ex. 77, 5-(benzoxazol-2-yl)-1-(tetrahydropyran-4-yl)-2-trichloromethylbenzimidazole], for which the “Activity (potentiation of NGF activity)” value is on record as “+”.

Take `Cc1nc2cc(-c3nc4ccccc4o3)ccc2n1C1CCC(=O)CC1` [Ex. 78, 5-(benzoxazol-2-yl)-1-(cyclohexanon-4-yl)-2-methylbenzimidazole]: the “Activity (potentiation of NGF activity)” value is “++”.

In the case of `Cc1nc2cc(-c3nc4ccccc4o3)ccc2n1Cc1ccccn1` [Ex. 79, 5-(benzoxazol-2-yl)-2-methyl-1-(2-picolyl)benzimidazole], the “Activity (potentiation of NGF activity)” value is given as “++”.

For the compound `Cc1nc2cc(-c3nc4ccccc4o3)ccc2n1CCC1CCOCC1` [Ex. 83, 5-(benzoxazol-2-yl)-2-methyl-1-(2-(tetrahydropyran-4-yl)ethyl)benzimidazole], the “Activity (potentiation of NGF activity)” value is given as “++”.

As to `Cc1nc2cc(-c3nc4ccccc4o3)ccc2n1CC1CCOCC1` [Ex. 84, 5-(benzoxazol-2-yl)-2-methyl-1-((tetrahydropyran-4-yl)methyl)benzimidazole], the “Activity (potentiation of NGF activity)” value is “++”.

As for `CCOC(=O)Cc1nc2cc(-c3nc4ccccc4o3)ccc2n1C1CCOCC1` [Ex. 86, 5-(benzoxazol-2-yl)-2-(ethoxycarbonylmethyl)-1-(tetrahydropyran-4-yl)benzimidazole], the “Activity (potentiation of NGF activity)” value was “++”.

Consider `Cc1nc2cc(-c3nc4ccccc4o3)ccc2n1C1CCCc2ccccc21` (centres unmarked) [Ex. 87, 5-(benzoxazol-2-yl)-2-methyl-1-(1,2,3,4-tetrahydronaphthalen-1-yl)benzimidazole], for which the “Activity (potentiation of NGF activity)” value is reported as “++”.

As for `Cc1nc2cc(-c3nc4ccccc4o3)ccc2n1C(c1ccccc1)c1ccccc1` [Ex. 89, 5-(benzoxazol-2-yl)-2-diphenylmethyl-2-methylbenzimidazole], the “Activity (potentiation of NGF activity)” value was “++”.

For the compound `c1ccc2oc(-c3ccc4c(c3)nc(C3CCCO3)n4C3CCOCC3)nc2c1` (centres unmarked) [Ex. 90, 5-(benzoxazol-2-yl)-2-(tetrahydrofuran-2-yl)-1-(tetrahydropyran-4-yl)benzimidazole], the “Activity (potentiation of NGF activity)” value is recorded as “++”.

With `Cc1nc2cc(-c3nc4ccccc4o3)ccc2n1CC(=O)O` [Ex. 92, 5-(benzoxazol-2-yl)-1-carboxymethyl-2-methylbenzimidazole], the “Activity (potentiation of NGF activity)” value is on record as “++”.

Turning to `Cc1nc2cc(-c3nc4ccccc4o3)cc(C(F)(F)F)c2n1C1CCOCC1` [Ex. 94], the “Activity (potentiation of NGF activity)” value is reported as “++”.

As to `Cc1nc2cc(-c3nc4ccccc4o3)ccc2n1CCCN1CCOCC1` [Ex. 96, 5-(benzoxazol-2-yl)-2-methyl-1-(3-(morpholine-4-yl)propyl)benzimidazole], the “Activity (potentiation of NGF activity)” value is given as “++”.

As to `Cc1nc2cc(-c3nc4cc(C(=O)O)ccc4o3)ccc2n1C1CCOCC1` [Ex. 97, 5-(5-carboxylbenzoxazol-2-yl)-2-methyl-1-(tetrahydropyran-4-yl)benzimidazole], the “Activity (potentiation of NGF activity)” value is given as “++”.

`CCCNC(=O)c1ccc2oc(-c3ccc4c(c3)nc(C)n4C3CCOCC3)nc2c1` [Ex. 99, 2-methyl-5-(5-n-propylaminocarbonylbenzoxazol-2-yl)-1-(tetrahydropyran-4-yl)benzimidazole]: the “Activity (potentiation of NGF activity)” value is reported as “++”.

For `CC(=O)NCc1nc2cc(-c3nc4cc(Cl)ccc4o3)ccc2n1C1CCOCC1` [Ex. 104, 2-acetylaminomethyl-5-(5-chlorobenzoxazol-2-yl)-1-(tetrahydropyran-4-yl)benzimidazole], the “Activity (potentiation of NGF activity)” value is “++”.

Regarding `Cc1nc2cc(-c3nc4ccccc4o3)ccc2n1CC(=O)N1CCOCC1` [Ex. 107], the “Activity (potentiation of NGF activity)” value is listed as “+”.

Consider `Cc1nc2cc(-c3nc4ccccc4o3)ccc2n1CCNC(=O)CCC(=O)O` [Ex. 108, 4-oxo-4-(2-(5-(benzoxazol-2-yl)-2-methylbenzimidazol-1-yl)ethyl)aminobutyric acid], for which the “Activity (potentiation of NGF activity)” value is “++”.

In the case of `Cc1nc2cc(-c3nc4ccccc4o3)ccc2n1CCNC(=O)C(F)(F)F` [Ex. 109, 5-(benzoxazol-2-yl)-2-methyl-1-(2-trifluoroacetylaminoethyl)benzimidazole], the “Activity (potentiation of NGF activity)” value is “++”.

In the case of `c1ccc2oc(-c3ccc4c(c3)nc(CC3CCOCC3)n4C3CCOCC3)nc2c1` [Ex. 111, 5-(benzoxazol-2-yl)-1-(tetrahydropyran-4-yl)-2-(tetrahydropyran-4-yl)methylbenzimidazole], the “Activity (potentiation of NGF activity)” value is listed as “++”.

As to `Cc1nc2cc(-c3nc4ccccc4o3)c(Cl)cc2n1C1CCOCC1` [Ex. 112, 5-(benzoxazol-2-yl)-2-methyl-1-(tetrahydropyran-4-yl)-6-chlorobenzimidazole], the “Activity (potentiation of NGF activity)” value is “++”.

Take `COC(=O)c1ccc(Cn2c(C)nc3cc(-c4nc5ccccc5o4)ccc32)cc1` [Ex. 113, 5-(benzoxazol-2-yl)-1-(4-methoxycarbonylphenylmethyl)-2-methylbenzimidazole]: the “Activity (potentiation of NGF activity)” value is “++”.

For the compound `Cc1nc2cc(-c3nc4ccccc4o3)ccc2n1Cc1ccc(C(=O)O)cc1` [Ex. 114, 5-(benzoxazol-2-yl)-1-(4-carboxyphenylmethyl)-2-methylbenzimidazole], the “Activity (potentiation of NGF activity)” value is “++”.

With `COC(=O)c1cccc(Cn2c(C)nc3cc(-c4nc5ccccc5o4)ccc32)c1` [Ex. 117, 5-(benzoxazol-2-yl)-1-(3-methoxycarbonylphenylmethyl)-2-methylbenzimidazole], the “Activity (potentiation of NGF activity)” value is on record as “++”.

For the compound `CC(=O)OCC(c1ccccc1)n1c(C)nc2cc(-c3nc4ccccc4o3)ccc21` (centres unmarked) [Ex. 118, 5-(1-benzoxazol-2-yl)-1-(1-acetoxy-2-phenylethan-2-yl)-2-methylbenzimidazole], the “Activity (potentiation of NGF activity)” value is “++”.
